How the values were obtained:
NIH/OlaHsd mice = assay: In vivo ovalbumin-specific antibody response, second experiment (neutral, anionic, mannosylated liposomes); parameters: species or system mouse; conditions: for Log10 (anti-OVA IgG1/anti-OVA IgG2a): second in vivo experiment, 0.15 μmol adjuvant, one week after second booster, mean ± SEM of 5 mice
Procedure: To determine whether the adjuvanticity of 75 can be modulated through changes to the liposomal formulation, a second in vivo experiment was designed in which the adjuvant activities of three different liposomal compositions were compared. Neutral liposomes were prepared from egg phosphatidylcholine and cholesterol.
Multilamellar liposomes were prepared by the modified thin lipid film method as described previously.[130],[131] For the preparation of neutral liposomes, a 7:5 molar ratio of egg-phosphatidylcholine and cholesterol was used. For the preparation of negatively charged liposomes, a 7:5:1 molar ratio of egg-phosphatidylcholine, cholesterol, and dicetylphosphate was used, while a 7:5:0.5 molar ratio of egg-phosphatidylcholine, cholesterol, and Man-PEG-Pam was used in the preparation of mannosylated liposomes. Lipids (total lipid concentration, 4 mg/mL) were dissolved in chloroform/methanol (2:1). A methanol or chloroform/methanol solution of MDP or the desmuramylpeptides was added to the lipid solution for a final concentration of 2 mM and 1.5 mM for the first (Figure 10) and second (Figure 11) experiments, respectively. After rotary evaporation of the solvent, the remaining lipid film was dried in vacuum for 1 h and then dispersed by gentle handshaking in an ovalbumin solution in saline (0.0667 and 0.1 mg/mL for the first and second experiments, respectively). This was then left overnight at 4 °C to swell and stabilize. Liposome size was reduced by sonification. Nonentrapped material was not separated from liposomes, and the complete liposome suspension was used for immunizations.
For the first experiment (Figure 10), sex-matched NIH/OlaHsd mice (five per group) were immunized subcutaneously in the tail base and boosted one time after 21 days. The injection volume in all experimental groups was 0.15 mL per mouse, which corresponds to 10 μg of OVA, […], and 0.30 μmol of MDP and desmuramylpeptides. For the second experiment (Figure 11), sex-matched NIH/OlaHsd mice (five per group) were immunized and boosted two times subcutaneously into the tail base at 21-day intervals. The injection volume in all experimental groups was 0.1 mL per mouse, which corresponds to 10 μg of OVA, 400 μg of lipids, and 0.15 μmol of MDP and 75. The mice were anesthetized with ip application of ketamine/xylazine (25 mg/kg each) prior to blood collection from the axillary plexus on the seventh day after the last booster dose. Individual serum from each animal was decomplemented at 56 °C for 30 min and then stored at −20 °C until tested.
ELISA assays were performed as detailed previously.[46] Briefly, high-binding ELISA plates (Costar, U.S.A.) were coated with a 15 μg/mL solution of ovalbumin in carbonate buffer, pH 9.6, and incubated overnight at room temperature. Nonspecific antibody binding was blocked with 0.5% w/v bovine serum albumin in PBS-T (0.05% (v/v) Tween 20 in phosphate-buffered saline) for 2 h at 37 °C. After washing, five serial dilutions of mice sera and standard preparations were added in duplicate. Plates were incubated overnight at room temperature, washed, and analyzed for ovalbumin-specific IgG levels by incubation with HRP-conjugated goat anti-mouse IgG (2 h at 37 °C) and then, after washing, with 0.6 mg/mL o-phenylenediaminedihydrochloride solution in citrate-phosphate buffer, pH 5.0, with 0.5 μL of 30% H2O2 per milliliter for 30 min at room temperature in the dark. The enzymatic reaction was stopped with 12.5% H2SO4, and absorbance at 492 nm was measured using a microplate reader (Thermo Fisher Scientific, Waltham, MA, U.S.A.). For the determination of ovalbumin-specific IgG1 and IgG2a, the plates were incubated with biotin-conjugated rat anti-mouse IgG1 or IgG2a (2 h at 37 °C) and subsequently with streptavidin–peroxidase for another 2 h at 37 °C. After washing, the substrate solution was added and incubated for 30 min at room temperature in the dark, as described above. […]

[1] = test system: CD8+ T cells (OT I) cocultured with BMDCs; assay: BMDC antigen cross-presentation assay with ovalbumin-specific CD8+ T cells; format: cell-based, mouse; conditions: ovalbumin 50 μg/mL, 72 h coculture
Procedure: To evaluate the adjuvant potential of the two most-promising desmuramylpeptides, 68 and 75, in terms of their effects on DC-mediated activation of CD4^+ and CD8^+ T cells, we used an in vitro antigen-presentation assay with C57BL/6 mouse bone-marrow-derived DCs (BMDCs). Following stimulation with 68 and 75 (1 or 10 μM) in the presence of ovalbumin soluble protein (50 μg/mL), BMDCs were cocultured with carboxyfluorescein succinimidyl ester (CFSE)-labeled naive ovalbumin-specific CD4^+ or CD8^+ T cells, which were isolated from splenocytes of OT II and OT I transgenic mice, respectively. After 3 days of coculture, CD25 (α subunit of IL-2 receptor)[108] expression was determined, along with the CFSE dilution, as markers of T-cell activation and proliferation, respectively. Furthermore, we also examined how this desmuramylpeptide-induced priming of T cells affected the secreted cytokine profiles in BMDC/T-cell cocultures.
CD4^+ and CD8^+ T cells were purified from splenocytes of OT II and OT I transgenic mice using CD4^+ and CD8^+ T cell isolation kits (Miltenyi Biotec, Germany), according to manufacturer instructions. […] Live Thy1.2^+/CD4^+ and Thy1.2^+/CD8^+ were evaluated for CFSE dilution and CD25 expression. […] Statistical significance was determined by one-way ANOVA followed by Dunnett’s multiple comparisons test.

SMILES | Ovalbumin-specific IgG2a response (in words) (NIH/OlaHsd mice; mannosylated liposomes, 0.15 μmol adjuvant per dose) | Ovalbumin-specific IgG1 response (in words) (NIH/OlaHsd mice; negatively charged liposomes, 0.15 μmol adjuvant per dose) | Ovalbumin-specific IgG levels compared to controls without adjuvant (in words) (NIH/OlaHsd mice; regardless of the liposomal composition) | Log10 (anti-OVA IgG1/anti-OVA IgG2a) (NIH/OlaHsd mice; anionic liposomes) | Log10 (anti-OVA IgG1/anti-OVA IgG2a) (NIH/OlaHsd mice; mannosylated liposomes) | Log10 (anti-OVA IgG1/anti-OVA IgG2a) (NIH/OlaHsd mice; neutral liposomes) | BMDC processing and cross-presentation of ovalbumin to CD8+ T cells [1]
CCCCCCCCCCCCCCCCCC(=O)Oc1ccc(/C=C/C(=O)NCC(=O)N[C@H](C(=O)N[C@H](CCC(=O)OCC)C(=O)OCC)C(C)C)cc1OC [Compound 75, Diethyl ((E)-3-(3-Methoxy-4-(stearoyloxy)phenyl)acryloyl)glycyl-L-valyl-D-glutamate] | enhanced the production of IgG2a antibodies | diminished IgG1 activity | increased the levels of IgG antibodies | 1.84 ± 0.20 | 2.15 ± 0.17 | 2.27 ± 0.17 | –
COc1cc(/C=C/C(=O)NCC(=O)N[C@H](C(=O)N[C@H](CCC(=O)OC2CCCC2)C(=O)OC2CCCC2)C(C)C)ccc1O [Compound 68, Dicyclopentyl ((E)-3-(4-Hydroxy-3-methoxyphenyl)acryloyl)glycyl-L-valyl-D-glutamate] | – | – | – | – | – | – | significantly increased
